Read-outs that look alike come from different tables or passages of the source.
Tests used:
[1] = tested on: IL-2 stimulated pSTAT5 in Tall-1 T cells; experiment: Cellular JAK3 potency assay: inhibition of IL-2 stimulated pSTAT5 in Tall-1 T cells; format: cell-based, human; conditions: for IC50: Homo sapiens, read-out: Tall-1 (pIC50) (converted)
How it was run: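 Inhibition of IL-2-induced pSTAT5 was quantified by AlphaLisa in Tall-1 cell lysates. Compound exposure lasted 1 h before 30 min stimulation with 300 ng/ml IL-2 final.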

[2] = target: T1, JAK3 (Homo sapiens, UniProt P52333); experiment: Biochemical JAK3 kinase assay (LanthaScreen); parameters: GST; purchased Life Technologies; conditions: for Ki: read-out: JAK 3 (pKi) (converted)
T1 sequence (P52333 1-1124): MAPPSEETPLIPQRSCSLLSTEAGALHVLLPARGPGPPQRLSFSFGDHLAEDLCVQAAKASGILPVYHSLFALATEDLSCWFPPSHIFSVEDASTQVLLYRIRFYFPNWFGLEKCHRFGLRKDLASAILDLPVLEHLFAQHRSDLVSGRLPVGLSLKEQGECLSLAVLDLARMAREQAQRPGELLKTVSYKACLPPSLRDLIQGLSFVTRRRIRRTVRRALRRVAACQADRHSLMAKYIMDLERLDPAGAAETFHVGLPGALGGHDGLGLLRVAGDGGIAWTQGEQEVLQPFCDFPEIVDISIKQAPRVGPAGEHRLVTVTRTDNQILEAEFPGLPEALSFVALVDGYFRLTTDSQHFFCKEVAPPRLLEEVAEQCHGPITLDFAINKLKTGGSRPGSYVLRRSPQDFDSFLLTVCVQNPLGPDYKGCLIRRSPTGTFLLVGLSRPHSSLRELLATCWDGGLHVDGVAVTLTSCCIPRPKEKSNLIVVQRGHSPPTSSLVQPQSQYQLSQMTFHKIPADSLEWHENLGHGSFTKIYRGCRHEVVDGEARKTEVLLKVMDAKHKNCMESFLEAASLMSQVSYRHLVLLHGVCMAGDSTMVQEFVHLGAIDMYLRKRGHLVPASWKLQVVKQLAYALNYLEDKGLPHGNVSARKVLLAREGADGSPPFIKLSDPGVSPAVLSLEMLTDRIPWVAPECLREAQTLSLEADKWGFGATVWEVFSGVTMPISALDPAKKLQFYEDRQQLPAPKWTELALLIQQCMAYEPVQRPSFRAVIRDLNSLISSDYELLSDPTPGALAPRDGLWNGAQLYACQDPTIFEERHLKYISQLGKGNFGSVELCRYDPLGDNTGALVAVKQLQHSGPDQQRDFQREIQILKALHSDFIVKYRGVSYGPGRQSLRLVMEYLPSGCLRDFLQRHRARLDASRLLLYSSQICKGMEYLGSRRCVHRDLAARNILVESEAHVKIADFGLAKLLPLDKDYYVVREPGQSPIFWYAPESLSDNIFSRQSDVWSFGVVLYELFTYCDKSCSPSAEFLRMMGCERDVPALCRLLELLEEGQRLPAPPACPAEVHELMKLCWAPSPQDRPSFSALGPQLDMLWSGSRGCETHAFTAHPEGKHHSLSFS
How it was run: (§1)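 Compounds were preincubated with the GST-tagged kinase and GFP-labelled STAT1 peptide for one hour before ATP initiated a one-hour reaction at ambient temperature. Phosphorylation was quantified by TR-FRET with a Tb-labelled pTyr701 antibody. Ki values were derived from IC50 using Cheng-Prusoff.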

[3] = target: T2, JAK1 (Homo sapiens, UniProt P23458); experiment: Biochemical JAK1 kinase assay (LanthaScreen); conditions: for Ki: read-out: JAK 1 (pKi) (converted)
T2 construct: GST; purchased Life Technologies
T2 sequence (P23458 whole entry): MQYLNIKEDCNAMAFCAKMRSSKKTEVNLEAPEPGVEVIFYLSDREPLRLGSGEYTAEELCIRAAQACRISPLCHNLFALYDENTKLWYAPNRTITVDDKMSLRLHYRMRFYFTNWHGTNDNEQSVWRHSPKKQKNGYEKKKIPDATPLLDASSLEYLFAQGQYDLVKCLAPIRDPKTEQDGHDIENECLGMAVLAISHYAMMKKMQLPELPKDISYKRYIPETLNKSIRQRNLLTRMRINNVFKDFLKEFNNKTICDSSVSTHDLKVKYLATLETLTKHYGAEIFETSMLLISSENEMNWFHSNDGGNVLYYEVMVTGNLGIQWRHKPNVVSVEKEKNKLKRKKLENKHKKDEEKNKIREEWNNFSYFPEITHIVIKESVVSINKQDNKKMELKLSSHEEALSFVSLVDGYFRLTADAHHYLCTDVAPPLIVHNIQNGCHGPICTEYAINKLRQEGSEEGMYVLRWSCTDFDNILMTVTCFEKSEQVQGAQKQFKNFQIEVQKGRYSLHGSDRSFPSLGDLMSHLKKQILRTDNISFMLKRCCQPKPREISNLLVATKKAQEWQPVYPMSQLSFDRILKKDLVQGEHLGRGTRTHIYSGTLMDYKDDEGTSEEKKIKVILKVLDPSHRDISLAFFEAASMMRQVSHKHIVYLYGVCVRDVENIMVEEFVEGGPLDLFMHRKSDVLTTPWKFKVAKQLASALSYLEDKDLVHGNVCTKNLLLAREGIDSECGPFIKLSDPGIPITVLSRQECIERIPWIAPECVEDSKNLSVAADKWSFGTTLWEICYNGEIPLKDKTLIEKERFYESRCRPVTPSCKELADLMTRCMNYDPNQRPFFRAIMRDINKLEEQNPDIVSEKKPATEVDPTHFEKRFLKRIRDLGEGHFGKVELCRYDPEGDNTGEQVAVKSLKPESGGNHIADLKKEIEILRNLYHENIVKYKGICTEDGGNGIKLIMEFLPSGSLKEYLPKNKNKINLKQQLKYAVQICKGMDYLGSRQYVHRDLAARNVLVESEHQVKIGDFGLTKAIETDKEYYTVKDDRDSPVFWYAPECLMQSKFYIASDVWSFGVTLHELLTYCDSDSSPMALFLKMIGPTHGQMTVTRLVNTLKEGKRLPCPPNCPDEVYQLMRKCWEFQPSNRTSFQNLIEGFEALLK
How it was run: as §1

[4] = IL-2 stimulated pSTAT5 in Tall-1 T cells
[5] = selectivity: difference of pKi JAK3 and pKi JAK1
[6] = TALL-1, IL-2 stimulated pSTAT5, Tall-1 T cells
[7] = selectivity JAK3 over JAK1, difference of pKi
[8] = IL-2 stimulated pSTAT5, Tall-1 T cells
[9] = TALL-1, IL-2 stimulated pSTAT5 in Tall-1 T cells

Row | SMILES | Tall-1 (pIC50) [1, 4] | JAK 3 (pKi) [2] | JAK3 (pKi)-JAK1 (pKi) [2, 5] | JAK 1 (pKi) [3] | IC50 [1, 6] [nM] | Ki [2] [nM] | JAK3 (pKi)-JAK1 (pKi) [2, 7] | Ki [3] [nM] | Tall-1 (pIC50) [1, 8] | IC50 [1, 9] [nM]
1 | C=CC(=O)N1CC(CC)(COc2cc(-c3ccc(O)c(F)c3)cc3[nH]ncc23)C1 [Compound 3-18] | B (a pIC50 value between 6.7 (included) and 7.5 (IC50 between 200 nM and 32 nM)) | A (a pKi value≥10 (Ki≤0.1 nM)) | A (a value of 3 or above) | E (a pKi value of 7 or below (Ki of 100 nM or above)) | – | – | – | – | – | –
2 | C=CC(=O)N1CC2(CC(Oc3cc(-c4ccc(O)cc4)cc4[nH]ncc34)C2)C1 [Compound 12-21] | – | – | – | – | < 31.6 | 0.1 to 1 | B (a value of 2.3 to 3) | > 100 | – | –
3 | CN(C)C/C=C/C(=O)N1CC[C@H]1COc1cc(-c2ccc(O)cc2)cc2[nH]ncc12 [Compound 12-24] | – | – | – | – | 200 to 1000 | 0.1 to 1 | A (a value of 3 or above) | > 100 | – | –
4 | C=CC(=O)N1CC[C@@H](Nc2cc(-c3ccc(O)cc3)cc3[nH]ncc23)C1 [Compound 12-18] | – | – | – | – | 31.6 to 200 | < 0.1 | B (a value of 2.3 to 3) | 10 to 100 | – | –
5 | CN(C)C/C=C/C(=O)N1CC(Oc2cc(-c3ccc(O)cc3)cc3[nH]ncc23)C1 [Compound 5-1] | C (a pIC50 value between 6 and 6.7 (IC50 between 1 μM and 200 nM)) | B (a pKi value between 9 and 10 (Ki between 1 nM and 0.1 nM)) | A (a value of 3 or above) | E (a pKi value of 7 or below (Ki of 100 nM or above)) | – | – | – | – | – | –
6 | C=CC(=O)N1CC(CC)(COc2cc(-c3ccc(O)cc3)cc3[nH]ncc23)C1 [Compound 3-14] | B (a pIC50 value between 6.7 (included) and 7.5 (IC50 between 200 nM and 32 nM)) | B (a pKi value between 9 and 10 (Ki between 1 nM and 0.1 nM)) | A (a value of 3 or above) | E (a pKi value of 7 or below (Ki of 100 nM or above)) | – | – | – | – | – | –
7 | C=CC(=O)N1CC[C@@H]1COc1cc(-c2ccc(O)cc2)cc2[nH]ncc12 [Compound 12-23] | – | – | – | – | 31.6 to 200 | 0.1 to 1 | A (a value of 3 or above) | > 100 | – | –
8 | C=CC(=O)N1CCC[C@H](S(=O)(=O)c2cc(-c3ccc(O)cc3)cc3[nH]ncc23)C1 [Compound 12-9] | – | – | – | – | 200 to 1000 | 0.1 to 1 | A (a value of 3 or above) | > 100 | – | –
9 | CN(C)C/C=C/C(=O)N1CCC(COc2cc(-c3ccc(O)c(F)c3)cc3[nH]ncc23)CC1 [Compound 14-4] | – | B (a pKi value between 9 and 10 (Ki between 1 nM and 0.1 nM)) | – | D (a pKi value between 7 and 8 (Ki between 100 nM and 10 nM)) | – | – | B (a value of 2.3 to 3) | – | B (a pIC50 value between 6.7 (included) and 7.5 (IC50 between 200 nM and 32 nM)) | –
10 | C=CC(=O)N1CC[C@H](COc2cc(-c3ccc(O)c(Cl)c3)nc3[nH]ncc23)C1 [Compound 2-16] | C (a pIC50 value between 6 and 6.7 (IC50 between 1 μM and 200 nM)) | B (a pKi value between 9 and 10 (Ki between 1 nM and 0.1 nM)) | A (a value of 3 or above) | E (a pKi value of 7 or below (Ki of 100 nM or above)) | – | – | – | – | – | –
11 | C=CC(=O)N1CCC(Oc2cc(-c3ccc(O)c(F)c3)cc3[nH]ncc23)CC1 [Compound 6-14] | – | – | – | – | < 31.6 | < 0.1 | B (a value of 2.3 to 3) | 10 to 100 | – | –
12 | CN(C)C/C=C/C(=O)N1CC[C@@H]1COc1cc(-c2ccc(O)cc2)cc2[nH]ncc12 [Compound 12-22] | – | – | – | – | 200 to 1000 | 0.1 to 1 | A (a value of 3 or above) | > 100 | – | –
13 | C=CC(=O)N1CCC(COc2nc(-c3ccc(O)c(Cl)c3)cc3[nH]ncc23)CC1 [Compound 14-7] | – | A (a pKi value≥10 (Ki≤0.1 nM)) | – | D (a pKi value between 7 and 8 (Ki between 100 nM and 10 nM)) | – | – | B (a value of 2.3 to 3) | – | A (a pIC50 value≥7.5 (IC50≤32 nM)) | –
14 | C=CC(=O)N1CC2(CCC2Oc2nc(-c3ccc(O)c(Cl)c3)nc3[nH]ncc23)C1 (centres unmarked) [Compound 13-17] | – | A (a pKi value≥10 (Ki≤0.1 nM)) | – | E (a pKi value of 7 or below (Ki of 100 nM or above)) | – | – | A (a value of 3 or above) | – | B (a pIC50 value between 6.7 (included) and 7.5 (IC50 between 200 nM and 32 nM)) | –
15 | C=CC(=O)N1C[C@@H](Oc2cc(-c3ccc(O)cc3)cc3[nH]ncc23)C[C@@H]1C [Compound 1-12] | – | – | A (a value of 3 or above) | – | – | 0.1 to 1 | – | > 100 | – | 31.6 to 200
16 | C=CC(=O)N1CC[C@H](Oc2cc(-c3ccc(O)c(Cl)c3)nc3[nH]nc(C)c23)C1 [Compound 1-32] | – | – | A (a value of 3 or above) | – | – | 0.1 to 1 | – | > 100 | – | 200 to 1000
17 | C=CC(=O)N1CC(COc2nc(-c3ccc(O)cc3)nc3[nH]ncc23)(OC)C1 [Compound 3-76] | – | – | A (a value of 3 or above) | – | – | < 0.1 | – | > 100 | – | 31.6 to 200
18 | CN(C)C/C=C/C(=O)N1CC[C@H](COc2nc(-c3ccc(O)c(F)c3)cc3[nH]ncc23)C1 [Compound 2-13] | C (a pIC50 value between 6 and 6.7 (IC50 between 1 μM and 200 nM)) | B (a pKi value between 9 and 10 (Ki between 1 nM and 0.1 nM)) | B (a value of 2.3 to 3) | E (a pKi value of 7 or below (Ki of 100 nM or above)) | – | – | – | – | – | –
19 | CN(C)C/C=C/C(=O)N1CC(N(C)c2cc(-c3ccc(O)cc3)cc3[nH]ncc23)C1 [Compound 5-8] | C (a pIC50 value between 6 and 6.7 (IC50 between 1 μM and 200 nM)) | B (a pKi value between 9 and 10 (Ki between 1 nM and 0.1 nM)) | A (a value of 3 or above) | E (a pKi value of 7 or below (Ki of 100 nM or above)) | – | – | – | – | – | –
20 | CN(C)C/C=C/C(=O)N1CC[C@H](COc2nc(-c3ccc(O)c(Cl)c3)cc3[nH]ncc23)C1 [Compound 2-9] | B (a pIC50 value between 6.7 (included) and 7.5 (IC50 between 200 nM and 32 nM)) | B (a pKi value between 9 and 10 (Ki between 1 nM and 0.1 nM)) | B (a value of 2.3 to 3) | E (a pKi value of 7 or below (Ki of 100 nM or above)) | – | – | – | – | – | –

— patent US10392368B2, “Pyrazolo and triazolo bicyclic compounds as JAK kinase inhibitors” (THERAVANCE BIOPHARMA R&D IP, LLC, priority 2017, dated 2019)
